Laboratory results: article PMC10794144, “A novel antibiotic class targeting the lipopolysaccharide transporter” (Nature, 2024)
≈ marks a conversion by molar mass, not a printed value. Where two headings read alike, the source gives them in different places.

Legend:
A. baumannii [1] = test: Agar dilution MIC, Mueller–Hinton agar with 20% human serum; type: cell-based; settings: Acinetobacter baumannii
Experimental: Molten Mueller–Hinton agar (19 ml) supplemented with 20% human serum was added to 1 ml of compound at 20× the final concentration, poured immediately into Petri dishes (100 mm diameter) and gently mixed. Then, 2–3 colonies from agar plates were inoculated into CAMHB and incubated overnight under shaking (150 rpm). […] The agar plates were incubated aerobically at 35 ± 2 °C.

A. baylyi LptB2FGC = test: LPS-release assay, proteoliposomes to LptA; type: biochemical, Acinetobacter baylyi
Experimental: Proteoliposomes were prepared as described previously. Aqueous E. coli polar lipid extract (Avanti Polar Lipids) (30 mg ml^−1) and aqueous LPS from E. coli EH100 (Ra mutant; Sigma-Aldrich) (2 mg ml^−1) were sonicated briefly for homogenization. A mixture of 20 mM Tris-HCl (pH 8.0), 150 mM NaCl, 7.5 mg ml^−1 E. coli polar lipids, 0.5 mg ml^−1 LPS and 0.25% DDM was prepared and kept on ice for 10 min. Purified LptB2FGC was added to a final concentration of 0.86 μM, and the mixture was left on ice for 20 min. The mixture was diluted 100-fold with cold 20 mM Tris-HCl (pH 8.0) and 150 mM NaCl and kept on ice for 20 min. The proteoliposomes were pelleted (300,000g, 2 h, 4 °C), resuspended in 20 mM Tris-HCl (pH 8.0) and 150 mM NaCl, diluted 100× and centrifuged (300,000g, 2 h, 4 °C). The pellets were resuspended in a mixture of 20 mM Tris-HCl (pH 8.0), 150 mM NaCl and 10% glycerol (250 μl per 100 μl of the original predilution solution), homogenized by sonication, flash-frozen and stored at −80 °C until use.
The levels of release of LPS from proteoliposomes to LptA were measured as previously described. Assays used 60% proteoliposomes (by volume) in a solution containing 50 mM Tris-HCl (pH 8.0), 500 mM NaCl, 10% glycerol and 2 µM LptA^I36pBPA. Reaction mixtures were incubated with drug for 10 min at room temperature, as applicable. […]

[2] = Distribution coefficient logD7.4; type: physicochemical; settings: pH 7.4
A. baumannii [3] = tested on: A. baumannii

CN1C(=O)[C@H](CCCCN)NC(=O)[C@H](CCCN)NCc2cccnc2Sc2cccc(-c3ccc(C(=O)O)cc3)c2CNC(=O)[C@@H]1Cc1c[nH]c2ccccc12 [zosurabalpin]
MIC (A. baumannii [1]; ACC00445): 0.25 µg/mL (≈ 0.316 µM)
MIC (A. baumannii [1]; ACC00535): 0.12 µg/mL (≈ 0.152 µM)
MIC (A. baumannii [1]; ACC01073): 1 µg/mL (≈ 1.26 µM)
MIC (A. baumannii [1]; ACC01077): 0.25 µg/mL (≈ 0.316 µM)
MIC (A. baumannii [1]; ACC01085/AR0307): 0.25 µg/mL (≈ 0.316 µM)
MIC (A. baumannii [1]; ATCCBAA747, ATCC BAA-747): 0.12 µg/mL (≈ 0.152 µM)
MIC (A. baumannii [1]; ROB08706): 1 µg/mL (≈ 1.26 µM)
MIC (A. baumannii [1]; ROB08708): 0.12 µg/mL (≈ 0.152 µM)
LPS transport (A. baylyi LptB2FGC; complexes with LptF E249K or I317N): did not inhibit LPS transport
LPS extraction to LptA (A. baylyi LptB2FGC; wild-type LptB2FGC proteoliposomes, biological triplicate): blocked LPS extraction at concentrations comparable to growth inhibitory concentrations
logD7.4 [2]: –2.46
MIC_WT (A. baumannii [3]; A. baumannii ATCC 17978, wild type (parental strain)): 0.06 µM
MIC_WT (A. baumannii [3]; A. baumannii ATCC 19606, wild type (parental strain)): 0.25 µM
MIC_WT (A. baumannii [3]; A. baumannii ROB08705, wild type (parental strain)): 0.13 µM
MIC_WT (A. baumannii [3]; A. baumannii ROB08706, wild type (parental strain)): 1.0 µM
MIC_value (A. baumannii [3]; ATCC 17978 clone 1D1, run AB17978_3280_HS, evolved in HS/MHB): 128 µM
MIC_value (A. baumannii [3]; ATCC 17978 clone 1D3, run AB17978_3280_HS, evolved in HS/MHB): 128 µM
MIC_value (A. baumannii [3]; ATCC 17978 clone 1E3, run AB17978_3280_MHB, evolved in MHB): 16 µM
MIC_value (A. baumannii [3]; ATCC 17978 clone 1F1, run AB17978_3280_MHB, evolved in MHB): >128 µM
MIC_value (A. baumannii [3]; ATCC 17978 clone 2C1, run AB17978_3280_HS, evolved in HS/MHB): 16 µM
MIC_value (A. baumannii [3]; ATCC 17978 clone 2C1, run AB17978_3280_MHB, evolved in MHB): 2 µM
MIC_value (A. baumannii [3]; ATCC 17978 clone 2C2, run AB17978_3280_HS, evolved in HS/MHB): 8 µM
MIC_value (A. baumannii [3]; ATCC 17978 clone 2C3, run AB17978_3280_HS, evolved in HS/MHB): 4 µM
MIC_value (A. baumannii [3]; ATCC 17978 clone 2C4, run AB17978_3280_MHB, evolved in MHB): 8 µM
MIC_value (A. baumannii [3]; ATCC 17978 clone 2D2, run AB17978_3280_MHB, evolved in MHB): 8 µM
MIC_value (A. baumannii [3]; ATCC 17978 clone 2D3, run AB17978_3280_HS, evolved in HS/MHB): 32 µM
MIC_value (A. baumannii [3]; ATCC 17978 clone 3D1, run AB17978_3280_HS, evolved in HS/MHB): 32 µM
MIC_value (A. baumannii [3]; ATCC 17978 clone 4D1, run AB17978_3280_MHB, evolved in MHB): 64 µM
MIC_value (A. baumannii [3]; ATCC 17978 clone 5B1, run AB17978_3280_HS, evolved in HS/MHB): 1 µM
MIC_value (A. baumannii [3]; ATCC 17978 clone 5C1, run AB17978_3280_HS, evolved in HS/MHB): 64 µM
MIC_value (A. baumannii [3]; ATCC 17978 clone 5E1, run AB17978_3280_MHB, evolved in MHB): >32 µM
MIC_value (A. baumannii [3]; ATCC 17978 clone 6E1, run AB17978_3280_HS, evolved in HS/MHB): 32 µM
MIC_value (A. baumannii [3]; ATCC 17978 clone 6E1, run AB17978_3280_MHB, evolved in MHB): 4 µM
MIC_value (A. baumannii [3]; ATCC 17978 clone 6E2, run AB17978_3280_HS, evolved in HS/MHB): 16 µM
MIC_value (A. baumannii [3]; ATCC 17978 clone 6E3, run AB17978_3280_HS, evolved in HS/MHB): 32 µM
MIC_value (A. baumannii [3]; ATCC 17978 clone 6E4, run AB17978_3280_HS, evolved in HS/MHB): 32 µM
MIC_value (A. baumannii [3]; ATCC 17978 clone 6E4, run AB17978_3280_MHB, evolved in MHB): 8 µM
MIC_value (A. baumannii [3]; ATCC 17978 clone 6E5, run AB17978_3280_HS, evolved in HS/MHB): 32 µM
MIC_value (A. baumannii [3]; ATCC 17978 clone 6E6, run AB17978_3280_HS, evolved in HS/MHB): 8 µM
MIC_value (A. baumannii [3]; ATCC 17978 clone 6E9, run AB17978_3280_HS, evolved in HS/MHB): 8 µM
MIC_value (A. baumannii [3]; ATCC 19606 clone 1C2, run AB19606_3280_HS, evolved in HS_MHB): 8 µM
MIC_value (A. baumannii [3]; ATCC 19606 clone 1C3, run AB19606_3280_HS, evolved in HS_MHB): 16 µM
MIC_value (A. baumannii [3]; ATCC 19606 clone 1C4, run AB19606_3280_HS, evolved in HS_MHB): 8 µM
MIC_value (A. baumannii [3]; ATCC 19606 clone 2C1, run AB19606_3280_HS, evolved in HS_MHB): 64 µM
MIC_value (A. baumannii [3]; ATCC 19606 clone 2C3, run AB19606_3280_HS, evolved in HS_MHB): 64 µM
MIC_value (A. baumannii [3]; ATCC 19606 clone 2C6, run AB19606_3280_HS, evolved in HS_MHB): 16 µM
MIC_value (A. baumannii [3]; ATCC 19606 clone 2E1, run AB19606_3280_MHB, evolved in MHB): 16 µM
MIC_value (A. baumannii [3]; ATCC 19606 clone 2E2, run AB19606_3280_MHB, evolved in MHB): 16 µM
